Data reported in patent publication US20240261274A1, “TREATMENT OF MYC-DRIVEN CANCERS WITH GSPT1 DEGRADERS” (MONTE ROSA THERAPEUTICS, INC., priority 2021, published 2024).

What was measured:
[1] = system: NSCLC cell lines expressing high levels of N-Myc (NCI-H1155, ABC-1); test: Viability of NSCLC cell lines treated with compound 210; assay type: cell-based, human; details: compared to low N-Myc lines EBC-1, NCI-H2023
Procedure: GSPT1 was degraded by compound 210 after six hours of treatment in high N-Myc NCI-H1155 and ABC-1 cells with a DC50 of 3 nM and 22 nM, respectively (x-axis represents M concentration of compound 210; y-axis represents the viability in %).

[2] = system: human cell line NCI-H1155 xenograft; test: N-Myc-driven mouse xenograft model, NCI-H1155, compound 210 oral; assay type: in vivo
[3] = system: human cell line NCI-H526 xenograft; test: N-Myc-driven mouse xenograft model, NCI-H526, compound 210 oral; assay type: in vivo
N-Myc = N-Myc total protein levels in NSCLC lines after Compound 345 (western blot); assay type: cell-based; details: NSCLC cancer lines; N-Myc not detectable in NCI-H2023
Procedure: NCI-H1155 and NCI-H2023 were taken as representative of N-Myc high and low NSCLC. 12A: western blot analysis probing for GSPT1 and N-Myc following treatment with Compound 345 (as indicated). Tubulin was used as a loading control. N-Myc could not be detected by western blotting in the NCI-H2023 line. 12B: Single-sample gene set enrichment analysis (ssGSEA) results for a Myc target gene set at 6 hours (left) and 24 hours (right) after treatment. ssGSEA scores were normalized to DMSOs for each cell line and averaged for three replicates. Error bars denote+/−1 s.d. across replicates.

[4] = system: patient-derived xenografts; test: In vivo mouse patient-derived xenograft experiment, survival, Compound 345
From the text: FIGS. 14A and 14B: In vivo mouse patient-derived xenograft experiment.

L-Myc = L-Myc levels in SCLC lines after Compound 345 (western blot); assay type: cell-based; details: SCLC lines NCI-H1836 and NCI-H1876
From the text: NCI-H1836 and NCI-H1876 were taken as two representatives of L-Myc high SCLC. Western blot analysis probing for GSPT1 and L-Myc following treatment with Compound 345 as indicated. GAPDH was used as a loading control.

[5] = system: NCI-1155 NSCLC cell line derived xenograft; test: NCI-H1155 NSCLC CDX efficacy study (Compound 345); assay type: in vivo, immunodeficient mice; details: oral daily 1, 3 and 10 mg/kg
Procedure: Cell line derived xenograft (CDX) models were produced for the NCI-1155 NSCLC cell line in immunodeficient mice. Oral dosing of Compound 345 was performed daily at doses of 1 mg/kg, 3 mg/kg, and 10 mg/kg with a no-drug vehicle control. Tumor volumes were measured (mm^3) at days 3, 7, 10, 14, and 17.
In vivo efficacy study: NCI-H1155, MM1 S, WSU-DLCL2, DOHH-2 cells were maintained in vitro in individual medium and conditions as recommended by the providers and incubated at 37° C. in an atmosphere of 5% CO2 in air. 0.5 million (NCI-H1155), 10 million (MM1S) or 5 million (WSU-DLCL2 and DOHH-2) cells were resuspended in typically 0.1-0.2 mL of PBS with Matrigel (50:50) and were inoculated into 6-8 weeks old BALB/c nude female (NCI-H115, WSU-DLCL2), NOD/SCID (MM1S) or CB-17SCID (DOHH-2) mice and allowed to grow to 150-200 mm3 in size. Mice were dosed orally (PO) and daily (QD) with either vehicle or Compound 345 typically at 1.0 mg/kg, 3.0 mg/kg and 10 mg/kg. […] Tumor volumes were measured at least twice weekly during the treatment period using a caliper and the volume was expressed in mm3 using the formula: V=0.5 a×b2 where a and b were the long and short diameters of the tumor, respectively. […] Data are expressed as the mean±SEM. All data was analyzed using GraphPad Prism 8.1.2 (GraphPad).

[6] = system: Human mammary epithelial cells, or HMECs, overexpressing c-Myc in a doxycycline-inducible manner; test: Viability of HMECs with doxycycline-inducible c-Myc overexpression; assay type: cell-based; details: for induction of cell death: highest concentration tested 30 μM
From the text: X-axis represents m concentration of compound 8; y-axis represents viability normalized to DMSO.

GSPT1 = GSPT1 (Homo sapiens, UniProt P15170+Q96SW2); test: GSPT1 levels in tumors, PD analysis by western blotting (compound 8); assay type: in vivo, mice; design: from tissue; host or cells: NCI-H1155 subcutaneous xenograft tumours from BALB/c nude mice; details: 75 mg/kg and 37 mg/kg, respectively; 24 hr post third dose
Procedure: For the PD analysis, tumors were harvested 24 hr post third dose and GSPT1 total levels in tumors were determined by western blotting analysis. GADPH levels were measured as control Briefly, 30-50 mg of tumor was placed in 350 μL of RIPA buffer containing 1% Protease Inhibitor Cocktail and 1% Phosphatase Inhibitor Cocktail 2. Tumors were grinded using the Tissuelyser LT at 50 Hz for 5 min. the tissue lysates were kept on ice for 30 min, centrifuged at 12,000 rpm at 4° C. for 10 min and protein concentration measured using the Pierce™ BCA Protein Assay Kit as recommended by the manufacturer. Samples were diluted to the same final concentration (at 4 μg/μL) using RIPA buffer plus 4×LDS Sample Buffer and 10× Sample Reducing Agent and subsequently heat denatured at 100° C. for 10 min. Western blot analysis was performed using 5 μL per slot for each sample, loaded on a NuPAGE® 4-12% Bis-Tris gel, probing for GSPT1 (Sigma-HPA052488; 1/250 dilution) and GAPDH as loading control (CST-5174; 1/2000 dilution).

Sequence of GSPT1 (P15170 whole entry): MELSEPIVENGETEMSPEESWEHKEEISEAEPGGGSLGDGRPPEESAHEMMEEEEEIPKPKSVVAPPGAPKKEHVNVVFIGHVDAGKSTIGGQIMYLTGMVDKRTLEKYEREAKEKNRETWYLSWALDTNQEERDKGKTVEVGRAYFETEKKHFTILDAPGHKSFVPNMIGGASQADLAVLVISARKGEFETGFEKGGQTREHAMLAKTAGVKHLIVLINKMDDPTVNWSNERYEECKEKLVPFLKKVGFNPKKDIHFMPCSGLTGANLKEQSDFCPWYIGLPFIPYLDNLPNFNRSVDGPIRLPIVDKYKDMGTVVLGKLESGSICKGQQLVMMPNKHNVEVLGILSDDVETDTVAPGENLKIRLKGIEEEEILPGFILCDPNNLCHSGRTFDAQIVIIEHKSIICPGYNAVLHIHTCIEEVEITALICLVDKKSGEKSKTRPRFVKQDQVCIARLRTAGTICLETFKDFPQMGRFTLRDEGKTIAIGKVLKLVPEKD
Sequence of GSPT1 (Q96SW2 whole entry): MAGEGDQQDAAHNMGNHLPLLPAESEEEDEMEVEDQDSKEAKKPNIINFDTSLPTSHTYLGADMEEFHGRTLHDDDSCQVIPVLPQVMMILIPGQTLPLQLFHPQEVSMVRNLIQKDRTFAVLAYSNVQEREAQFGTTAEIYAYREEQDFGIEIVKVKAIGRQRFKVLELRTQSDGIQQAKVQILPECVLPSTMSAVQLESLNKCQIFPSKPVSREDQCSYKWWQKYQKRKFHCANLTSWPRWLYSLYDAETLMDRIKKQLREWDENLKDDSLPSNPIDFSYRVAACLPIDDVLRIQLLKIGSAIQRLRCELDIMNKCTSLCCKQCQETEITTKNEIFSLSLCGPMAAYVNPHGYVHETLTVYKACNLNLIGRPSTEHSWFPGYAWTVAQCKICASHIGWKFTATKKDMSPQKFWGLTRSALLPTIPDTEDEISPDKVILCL
Sequence of GSPT1 (Q16531 whole entry partner): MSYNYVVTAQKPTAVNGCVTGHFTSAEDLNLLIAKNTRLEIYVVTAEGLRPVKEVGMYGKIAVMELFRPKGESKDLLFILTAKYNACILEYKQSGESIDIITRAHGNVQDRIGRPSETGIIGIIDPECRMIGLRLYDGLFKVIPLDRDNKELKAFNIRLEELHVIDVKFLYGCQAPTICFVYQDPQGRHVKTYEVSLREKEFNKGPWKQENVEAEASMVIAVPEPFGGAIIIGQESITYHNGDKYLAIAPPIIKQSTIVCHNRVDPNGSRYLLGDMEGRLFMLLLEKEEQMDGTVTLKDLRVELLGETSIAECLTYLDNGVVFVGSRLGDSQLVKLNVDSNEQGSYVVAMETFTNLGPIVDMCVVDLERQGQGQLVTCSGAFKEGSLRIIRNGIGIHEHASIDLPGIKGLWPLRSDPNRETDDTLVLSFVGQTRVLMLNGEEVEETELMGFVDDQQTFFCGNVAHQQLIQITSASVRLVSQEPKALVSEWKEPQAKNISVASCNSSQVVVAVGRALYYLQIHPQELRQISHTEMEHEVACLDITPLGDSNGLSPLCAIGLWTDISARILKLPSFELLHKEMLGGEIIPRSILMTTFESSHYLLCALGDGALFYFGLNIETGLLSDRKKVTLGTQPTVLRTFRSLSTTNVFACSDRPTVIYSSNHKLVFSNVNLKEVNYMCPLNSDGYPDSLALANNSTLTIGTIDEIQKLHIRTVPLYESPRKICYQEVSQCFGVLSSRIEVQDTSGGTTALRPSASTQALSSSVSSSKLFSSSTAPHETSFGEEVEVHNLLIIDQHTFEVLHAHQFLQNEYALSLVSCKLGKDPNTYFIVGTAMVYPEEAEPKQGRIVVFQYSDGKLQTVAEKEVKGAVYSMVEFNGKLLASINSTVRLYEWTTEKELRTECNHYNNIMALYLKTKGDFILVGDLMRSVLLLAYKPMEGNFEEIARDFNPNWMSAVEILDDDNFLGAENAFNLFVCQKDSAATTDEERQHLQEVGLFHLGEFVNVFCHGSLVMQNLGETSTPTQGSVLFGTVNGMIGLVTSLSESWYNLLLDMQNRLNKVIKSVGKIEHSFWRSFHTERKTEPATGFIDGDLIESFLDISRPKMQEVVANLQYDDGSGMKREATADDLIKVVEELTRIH

Q: What does the source list for Cc1ccc(NC(=O)OCc2ccc3c(c2)C(=O)N(C2CCC(=O)NC2=O)C3)cc1Cl (stereo not shown) [Compound 210]?
A: sensitivity to treatment (viability) [1]: highly sensitive; tumor growth ([2]; 1 mg/kg once daily PO): tumor growth was suppressed for two weeks; tumor size ([2]; 3 mg/kg once daily PO): tumor size decreased, became undetectable by day eight and remained so until the end of the study at day 21; tumor size ([2]; 6 mg/kg PO, five days on and nine days off): tumor size decreased, became undetectable by day eight and remained so until the end of the study at day 21; body weight ([2]; oral administration (PO)): no body weight loss observed; tumor growth ([2]; oral administration (PO)): tumor growth inhibition; tumor size ([3]; 3 mg/kg once daily): tumor size decreased and remained so until the end of the study; tumor size ([3]; 6 mg/kg, five days on and nine days off): tumor size decreased and remained so until the end of the study; body weight ([3]; oral administration): no body weight loss observed; tumor growth ([3]; oral administration): tumor growth inhibition

Q: What does the source list for O=C1CCC(N2Cc3ccc(COC(=O)Nc4cc(OC(F)(F)F)ccc4F)cc3C2=O)C(=O)N1 (stereo not shown) [Compound 345, (2-(2,6-dioxopiperidin-3-yl)-3-oxoisoindolin-5-yl)methyl(2-fluoro-5-(trifluoromethoxy)phenyl)carbamate]?
A: N-Myc total protein levels, timecourse (N-Myc): downregulation of N-Myc total protein levels; survival ([4]; biomarker negative patient-derived xenografts): but not in the biomarker negative patient-derived xenografts; survival ([4]; biomarker positive (high N-Myc or L-Myc mRNA expression) patient-derived xenografts): significantly prolonged survival; L-Myc level, timecourse (L-Myc): downregulation of L-Myc; tumor volume [5]: anti-tumor activity and regression

Q: How did the EC50 ([6]; Homo sapiens, HMEC, presence of high c-Myc expression, read-out: EC50 of induced cell death (viability normalized to DMSO)) turn out when Cc1ccc(NC(=O)NCc2ccc3c(c2)C(=O)N(C2CCC(=O)NC2=O)C3)cc1Cl (stereo not shown) [Compound 8] was run?
A: 0.64 µM

Q: What about the “induction of cell death” value ([6]; absence of doxycycline-driven c-Myc expression) of the same compound?
A: did not induce cell death

Q: And the “induction of cell death” value ([6]; after doxycycline was washed out to remove c-Myc expression)?
A: did not induce cell death

Q: What about the “GSPT1 levels in tumors” value (GSPT1) of the same compound?
A: no or insignificant amounts of GSPT1
